Assay results from article PMC4571936, “Pre-steady-state Kinetic Analysis of a Family D DNA Polymerase from Thermococcus sp. 9°N Reveals Mechanisms for Archaeal Genomic Replication and Maintenance” (The Journal of Biological Chemistry, 2015).

Key:
[1] = biological target: T1, 9°N polD^− (exonuclease-deficient polD mutant H554A); experiment: pre-steady-state single-turnover nucleotide incorporation, rapid chemical quench, capillary electrophoresis; type: biochemical, Thermococcus sp. 9°N; details: apparent Kd, correct pairing, 2 mM MgSO4, ThermoPol buffer pH 8.8 (at 25 °C), 60 °C
T1 construct: gene polC; recombinant purified heterodimer of large and small subunit, ~1:1; with DNA polymerase II small subunit

[2] = biological target: T1, 9°N polD^− (exonuclease-deficient polD mutant H554A); experiment: pre-steady-state single-turnover nucleotide incorporation, rapid chemical quench, denaturing gel electrophoresis; type: biochemical, Thermococcus sp. 9°N; details: apparent Kd; correct pairing, template G with 5'-FAM 50-mer primer; 2 mM MgSO4, ThermoPol buffer pH 8.8 (at 25 °C), 60 °C

Cc1cn([C@H]2C[C@H](O)[C@@H](COP(=O)(O)OP(=O)(O)OP(=O)(O)O)O2)c(=O)[nH]c1=O [dTTP]
Kd ([1]; A Template-1 with 5'-FAM 50-mer primer): 1600 ± 100 nM

Nc1nc2c(ncn2[C@H]2C[C@H](O)[C@@H](COP(=O)(O)OP(=O)(O)OP(=O)(O)O)O2)c(=O)[nH]1 [dGTP]
Kd ([1]; template C with 5'-FAM 50-mer primer): 900 ± 300 nM

Nc1ccn([C@H]2C[C@H](O)[C@@H](COP(=O)(O)OP(=O)(O)OP(=O)(O)O)O2)c(=O)n1 [dCTP]
Kd [2]: 1700 ± 100 nM

Nc1ncnc2c1ncn2[C@H]1C[C@H](O)[C@@H](COP(=O)(O)OP(=O)(O)OP(=O)(O)O)O1 [dATP]
Kd ([1]; template T with 5'-FAM 50-mer primer): 2500 ± 100 nM
